Activation data for 44 molecules are collected here from patent US11168087B2, “Substituted imidazo[1,2-b]pyridazines, substituted imidazo[1,5-b]pyridazines, related compounds, and their use in the treatment of medical disorders” (BIAL—R&D Investments, S.A., priority 2016, dated 2021).

Where only a bound is given, the exact number is not on record here.

This experiment has as its target T1, glucocerebrosidase (Gcase) (Homo sapiens, UniProt P04062).
T1 construct: micellar solution containing 10 nM GCase and 100 nM saposin C
T1 sequence (P04062 40-536): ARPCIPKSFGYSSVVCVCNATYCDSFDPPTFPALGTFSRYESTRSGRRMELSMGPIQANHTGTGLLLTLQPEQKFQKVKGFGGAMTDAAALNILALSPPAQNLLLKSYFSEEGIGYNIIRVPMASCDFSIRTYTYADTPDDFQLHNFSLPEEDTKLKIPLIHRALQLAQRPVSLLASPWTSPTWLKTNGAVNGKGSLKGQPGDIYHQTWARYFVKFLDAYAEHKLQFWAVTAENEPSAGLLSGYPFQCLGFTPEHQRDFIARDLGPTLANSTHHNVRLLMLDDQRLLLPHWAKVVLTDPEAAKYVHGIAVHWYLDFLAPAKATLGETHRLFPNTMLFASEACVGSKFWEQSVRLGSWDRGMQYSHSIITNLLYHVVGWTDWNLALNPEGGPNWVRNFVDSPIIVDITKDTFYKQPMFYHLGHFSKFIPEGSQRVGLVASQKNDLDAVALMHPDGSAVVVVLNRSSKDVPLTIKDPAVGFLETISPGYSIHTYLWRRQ
The experiment in a line: Glucocerebrosidase (Gcase) activation assay, 4-methylumbelliferyl-beta-D-glucopyranoside substrate, with saposin C. The format is biochemical. To be noted: 0.25 h; for activation at 0.1 µM: read-out: Percent Gcase Activation 0.1 μM Test Compound; for activation at 1 µM: read-out: Percent Gcase Activation 1 μM Test Compound. The procedure:
The ability of exemplary compounds to activate glucocerebrosidase (Gcase) was measured.
A 484 μL aliquot of a 1.0 mg/mL solution of phosphatidylserine (PS) (Sigma P7769) in chloroform was evaporated under a stream of nitrogen for 1 hour. The lipid film was dissolved over 4 minutes of vigorous vortexing in 40 mL of 176 mM K2HPO4/50 mM citric acid (pH 4.7) containing 7.5 μL of triton X-100, resulting in a mixed micellar preparation with a composition of 0.32 mM triton and 0.37 mol % PS. 4-Methylumbelliferyl-beta-D-glucopyranoside (ACROS-337025000) was dissolved in the micellar solution to a final concentration of 2 mM for use as the reaction substrate.
Test compounds were diluted to the desired concentrations with dimethylsulfoxide (DMSO) from 10 mM stocks, and 0.41 μL of the DMSO compound mixture was added to 100 μL of micellar solution containing 10 nM GCase and 100 nM saposin C (Enzo ALX-201-262-C050). Pre-incubation was allowed to occur for 30 minutes at room temperature, after which the reaction was initiated by combining 25 μL of substrate solution with 25 μL of compound/GCase/saposin mixture. The reaction proceeded for 15 minutes at room temperature and was stopped by adding 150 μL of 1M glycine, pH 12.5. The endpoint of the reaction was monitored by measuring fluorescence intensity (excitation: 365 nm; emission: 440 nm) on a SpectraMax i3 instrument (Molecular Devices). Test compounds were screened at 1.0 and 0.1 μM final concentration, and subsequent 8-point dose response curves were obtained using 3-fold dilutions from a maximum final concentration of 5 μM.
The symbol “+” indicates less than 5% Gcase activation; the symbol “++” indicates Gcase activation in the range of 5% up to 20%; and the symbol “+++” indicates Gcase activation greater than 20%.

Take `CCCCCCOC1CCC(NC(=O)c2cnc3cc(C)c(Cl)nn23)CC1` (stereo not shown): the activation at 0.1 µM is less than 5% and the activation at 1 µM was less than 5%.

Turning to `Cc1cc2ncc(C(=O)Nc3ccc4c(c3)CCC4)n2nc1Cl`, the activation at 0.1 µM was less than 5% and the activation at 1 µM lay in the range of 5 to 20%.

As for `Cc1cc(-c2cccc(F)c2)nn2c(C(=O)NC(C3CC3)C(F)(F)F)cnc12` (stereo not shown), the activation at 0.1 µM was greater than 20% and the activation at 1 µM was greater than 20%.

Regarding `COc1cccc(-c2cc(C)c3ncc(C(=O)NC(C4CC4)C(F)(F)F)n3n2)c1` (stereo not shown), the activation at 0.1 µM is greater than 20% and the activation at 1 µM was greater than 20%.

With `COc1cccc(-c2cc(C)c3ncc(C(=O)NC(C4CC4)C4CC4)n3n2)c1`, the activation at 0.1 µM was greater than 20% and the activation at 1 µM was greater than 20%.

Take `Cc1cc(-c2ccns2)nn2c(C(=O)NC(C)(C)C3CC3)cnc12`: the activation at 0.1 µM is 5 to 20% and the activation at 1 µM was greater than 20%.

Regarding `C#CC(C)(C)NC(=O)c1cnc2c(C)cc(-c3ccns3)nn12`, the activation at 0.1 µM was less than 5% and the activation at 1 µM was greater than 20%.

In the case of `Cc1cc(-c2ccns2)nn2c(C(=O)NC(C3CC3)C(F)(F)F)cnc12` (stereo not shown), the activation at 0.1 µM was in the range of 5 to 20% and the activation at 1 µM is greater than 20%.

Regarding `Cc1cc(-c2ccc3ocnc3c2)nn2c(C(=O)NC(C)C3CC3)cnc12` (stereo not shown), the activation at 0.1 µM is greater than 20% and the activation at 1 µM is greater than 20%.

With `Cc1cc(-c2ccc3ocnc3c2)nn2c(C(=O)NC(C3CC3)C(F)(F)F)cnc12` (stereo not shown), the activation at 0.1 µM is greater than 20% and the activation at 1 µM is greater than 20%.

Consider `Cc1cc(-c2cccc3ocnc23)nn2c(C(=O)NC(C3CC3)C(F)(F)F)cnc12` (stereo not shown), for which the activation at 0.1 µM is 5 to 20% and the activation at 1 µM is greater than 20%.

In the case of `COc1cccc(-c2cc(C)c3ncc(C(=O)NC(C4CC4)C(F)(F)F)n3n2)n1` (stereo not shown), the activation at 0.1 µM is greater than 20% and the activation at 1 µM is greater than 20%.

`Cc1cc(-c2cccc(F)c2)nn2c(C(=O)NC(C)C(F)(F)F)cnc12` (stereo not shown): the activation at 0.1 µM was 5 to 20% and the activation at 1 µM is greater than 20%.

Take `Cc1cc(-c2cccc3ncoc23)nn2c(C(=O)NC(C3CC3)C(F)(F)F)cnc12` (stereo not shown): the activation at 0.1 µM was in the range of 5 to 20% and the activation at 1 µM was greater than 20%.

Turning to `Cc1cc(-c2cccc3ncoc23)nn2c(C(=O)NC(C)C(F)(F)F)cnc12` (stereo not shown), the activation at 0.1 µM was less than 5% and the activation at 1 µM was greater than 20%.

Turning to `Cc1cc(-c2ccc3ocnc3c2)nn2c(C(=O)NC(C)C(F)(F)F)cnc12` (stereo not shown), the activation at 0.1 µM is greater than 20% and the activation at 1 µM is greater than 20%.

As to `Cc1cc(-c2ccc(F)cc2C#N)nn2c(C(=O)NC(C3CC3)C(F)(F)F)cnc12` (stereo not shown), the activation at 0.1 µM lay within 5 to 20% and the activation at 1 µM was greater than 20%.

As to `Cc1cc(-c2ccc(F)cc2C#N)nn2c(C(=O)NC(C)C(F)(F)F)cnc12` (stereo not shown), the activation at 0.1 µM was in the range of 5 to 20% and the activation at 1 µM is greater than 20%.

As to `Cc1cc(-c2ccc3ocnc3c2)nn2c(C(=O)N[C@H](C)C(F)(F)F)cnc12`, the activation at 0.1 µM fell in the range of 5 to 20% and the activation at 1 µM is greater than 20%.

With `Cc1cc(-c2ccc3ocnc3c2)nn2c(C(=O)N[C@@H](C)C(F)(F)F)cnc12`, the activation at 0.1 µM is greater than 20% and the activation at 1 µM was greater than 20%.

`Cc1cc(-c2ccc(F)cc2C#N)nn2c(C(=O)N[C@H](C3CC3)C(F)(F)F)cnc12`: the activation at 0.1 µM was 5 to 20% and the activation at 1 µM was greater than 20%.

On to `Cc1cc(-c2ccc(F)cc2C#N)nn2c(C(=O)N[C@@H](C3CC3)C(F)(F)F)cnc12`, for which the activation at 0.1 µM was greater than 20% and the activation at 1 µM was greater than 20%.

For the molecule `Cc1cc(-c2ccc(F)cc2C#N)nn2c(C(=O)N[C@H](C)C(F)(F)F)cnc12`, the activation at 0.1 µM is less than 5% and the activation at 1 µM lay within 5 to 20%.

Take `Cc1cc(-c2ccc(F)cc2C#N)nn2c(C(=O)N[C@@H](C)C(F)(F)F)cnc12`: the activation at 0.1 µM fell in the range of 5 to 20% and the activation at 1 µM is greater than 20%.

In the case of `Cc1cc(-c2ccc(F)cc2C#N)nn2c(C(=O)N[C@H](C)C3CC3)cnc12`, the activation at 0.1 µM is less than 5% and the activation at 1 µM is greater than 20%.

`Cc1cc(-c2ccc(C#N)o2)nn2c(C(=O)N[C@H](C3CC3)C(F)(F)F)cnc12`: the activation at 0.1 µM is greater than 20% and the activation at 1 µM was greater than 20%.

On to `Cc1cc(-c2ccc(C#N)o2)nn2c(C(=O)N[C@@H](C3CC3)C(F)(F)F)cnc12`, for which the activation at 0.1 µM is greater than 20% and the activation at 1 µM is greater than 20%.

As to `Cc1cc(-c2sccc2C#N)nn2c(C(=O)N[C@H](C3CC3)C(F)(F)F)cnc12`, the activation at 0.1 µM was greater than 20% and the activation at 1 µM was greater than 20%.

As to `Cc1cc(-c2sccc2C#N)nn2c(C(=O)N[C@@H](C3CC3)C(F)(F)F)cnc12`, the activation at 0.1 µM was greater than 20% and the activation at 1 µM is greater than 20%.

Consider `Cc1cc(N2CCN(C(C)C)C2=O)nn2c(C(=O)NC(C3CC3)C(F)(F)F)cnc12` (stereo not shown), for which the activation at 0.1 µM is 5 to 20% and the activation at 1 µM was greater than 20%.

In the case of `Cc1cc(-c2ccon2)nn2c(C(=O)NC(C3CC3)C(F)(F)F)cnc12` (stereo not shown), the activation at 0.1 µM lay in the range of 5 to 20% and the activation at 1 µM is greater than 20%.

For the molecule `Cc1cc(-c2cccc(Cl)n2)nn2c(C(=O)NC(C)C(F)(F)F)cnc12` (stereo not shown), the activation at 0.1 µM was in the range of 5 to 20% and the activation at 1 µM was greater than 20%.

`Cc1cc(-c2cc(C)c3ncc(C(=O)N[C@H](C4CC4)C(F)(F)F)n3n2)sn1`: the activation at 0.1 µM is greater than 20% and the activation at 1 µM was greater than 20%.

Turning to `Cc1cc(-c2cc(C)c3ncc(C(=O)N[C@@H](C4CC4)C(F)(F)F)n3n2)sn1`, the activation at 0.1 µM fell in the range of 5 to 20% and the activation at 1 µM was greater than 20%.

For `Cc1cc(-c2cccnc2F)nn2c(C(=O)NC(C3CC3)C(F)(F)F)cnc12` (stereo not shown), the activation at 0.1 µM is 5 to 20% and the activation at 1 µM was greater than 20%.

Take `Cc1cc(-c2cncc(Cl)c2)nn2c(C(=O)N[C@H](C3CC3)C(F)(F)F)cnc12`: the activation at 0.1 µM was greater than 20% and the activation at 1 µM was greater than 20%.

With `Cc1cc(-c2cncc(Cl)c2)nn2c(C(=O)N[C@@H](C3CC3)C(F)(F)F)cnc12`, the activation at 0.1 µM is greater than 20% and the activation at 1 µM is greater than 20%.

In the case of `Cc1cc(-c2cncc(F)c2)nn2c(C(=O)NC(C3CC3)C(F)(F)F)cnc12` (stereo not shown), the activation at 0.1 µM lay in the range of 5 to 20% and the activation at 1 µM was greater than 20%.

For the molecule `Cc1nc2cc(-c3cc(C)c4ncc(C(=O)NC(C)C(F)(F)F)n4n3)ccc2o1` (stereo not shown), the activation at 0.1 µM was 5 to 20% and the activation at 1 µM was greater than 20%.

With `Cc1cc(N2CCCC(F)(F)C2)nn2c(C(=O)N[C@H](C3CC3)C(F)(F)F)cnc12`, the activation at 0.1 µM is greater than 20% and the activation at 1 µM is greater than 20%.

On to `Cc1cc(N2CCCC(F)(F)C2)nn2c(C(=O)N[C@@H](C3CC3)C(F)(F)F)cnc12`, for which the activation at 0.1 µM was greater than 20% and the activation at 1 µM is greater than 20%.

In the case of `Cc1cc(-c2ccccc2C#N)nn2c(C(=O)NC(C3CC3)C(F)(F)F)cnc12` (stereo not shown), the activation at 0.1 µM is 5 to 20% and the activation at 1 µM is greater than 20%.

Turning to `Cc1cc(-c2ccc(C(N)=O)o2)nn2c(C(=O)N[C@@H](C3CC3)C(F)(F)F)ncc12`, the activation at 0.1 µM fell in the range of 5 to 20% and the activation at 1 µM is greater than 20%.

With `Cc1cc(-c2ccc(C#N)o2)nn2c(C(=O)N[C@@H](C3CC3)C(F)(F)F)ncc12`, the activation at 0.1 µM is greater than 20% and the activation at 1 µM is greater than 20%.
